The source of these data is PubChem BioAssay (NCI).

Some test systems named below: BT-549 breast; HOP-62 NSCLC; MALME-3M melanoma; NCI-H23 lung; NCI-H460 lung; NCI/ADR-RES ovarian; OVCAR-3 ovarian; OVCAR-4 ovarian; SF-268 CNS.
What all share (assay): DTP human tumour cell line panel, 48 h

The structures appear in SMILES notation.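 All cell lines were grown in 96-well plates and treated with compound for 48 hours. Definition used: TGI = concentration required for complete inhibition of growth.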 Where a SMILES comes first, the peptide text is derived from it. [ ]: non-standard residue; d: D form. The star is where a group is joined. ξ: configuration not given here. ξD = NC(CC(=O)O)C(=O)O; Ac3c = NC1(C(=O)O)CC1; Boc = CC(C)(C)OC(=O)*; OtBu = CC(C)(C)O*

With `COC(=O)C1(NC(=O)C(CC(=O)OC(C)(C)C)NC(=O)OC(C)(C)C)CC1` (centres undefined) (Boc-[ξD](OtBu)-[Ac3c]-OMe), the TGI with BT-549 breast, in the experiment with HOP-62 NSCLC, in the experiment with MALME-3M melanoma, in the experiment with NCI-H23 lung, with NCI-H460 lung and in the experiment with NCI/ADR-RES ovarian was over 100 µM throughout. Further, the TGI with OVCAR-3 ovarian, in the experiment on OVCAR-4 ovarian and in the experiment with SF-268 CNS was over 100 µM each time.
`ONC1=Nc2ccccc2OCc2cc(Br)c(Br)cc2COc2ccccc2N=C1NO`: the TGI in the experiment on BT-549 breast is 42.5 µM; in the experiment on HOP-62 NSCLC it was 38.9 µM; in the experiment on MALME-3M melanoma, 42.1 µM; in the experiment on NCI-H23 lung, 44.5 µM; with NCI-H460 lung, 30.2 µM; with NCI/ADR-RES ovarian it was over 53.7 µM. For the same compound, the TGI with OVCAR-3 ovarian is over 48.1 µM; in the experiment with OVCAR-4 ovarian, over 52.6 µM; in the experiment with SF-268 CNS, over 57.4 µM.
Regarding `Cc1nn(C)c2nc3ccc(Cl)cc3c(-c3ccccc3)c12`, the TGI with BT-549 breast, in the experiment with HOP-62 NSCLC, in the experiment on MALME-3M melanoma, in the experiment with NCI-H23 lung, in the experiment on NCI-H460 lung and in the experiment on NCI/ADR-RES ovarian was over 100 µM in each case. The TGI in the experiment with OVCAR-3 ovarian, in the experiment with OVCAR-4 ovarian and in the experiment with SF-268 CNS was over 100 µM each time.
`O=C(/C=C(\O)c1ccccc1)/C(=C/C(=O)c1ccccc1)NN=C(c1ccccc1)c1ccccc1`: the TGI in the experiment on BT-549 breast was over 100 µM; in the experiment on HOP-62 NSCLC, over 100 µM; with MALME-3M melanoma, over 100 µM; in the experiment on NCI-H23 lung it was 79.9 µM; in the experiment on NCI-H460 lung, 72.8 µM; in the experiment on NCI/ADR-RES ovarian it was 77.6 µM. Moreover, the TGI in the experiment with OVCAR-3 ovarian was 67.1 µM; in the experiment with OVCAR-4 ovarian it was over 100 µM; with SF-268 CNS, over 100 µM.
In the case of `COP(=O)(OC)C(NC=O)P(=O)(OC)OC`, the TGI in the experiment on BT-549 breast, in the experiment with HOP-62 NSCLC, in the experiment with MALME-3M melanoma, with NCI-H23 lung, with NCI-H460 lung and in the experiment on NCI/ADR-RES ovarian was over 100 µM each time. Also, the TGI with OVCAR-3 ovarian, in the experiment on OVCAR-4 ovarian and in the experiment with SF-268 CNS was over 100 µM each time.
For the compound `CC(C)=Nn1cnc(C(=N)C#N)c1N`, the TGI with BT-549 breast, with HOP-62 NSCLC, in the experiment with MALME-3M melanoma, in the experiment with NCI-H23 lung, in the experiment on NCI-H460 lung and in the experiment with NCI/ADR-RES ovarian was over 100 µM throughout. Besides, the TGI with OVCAR-3 ovarian, in the experiment on OVCAR-4 ovarian and with SF-268 CNS was over 100 µM each time.
As to `CCn1c2ccc(O)c(C(=O)OC)c2c2cc3ccccc3c(O)c21`, the TGI with BT-549 breast was 50.7 µM; with HOP-62 NSCLC it was 45 µM; in the experiment with MALME-3M melanoma it was 20.7 µM; in the experiment on NCI-H23 lung, 52.4 µM; in the experiment on NCI-H460 lung it was 54.9 µM; with NCI/ADR-RES ovarian it was 57.2 µM. In addition, the TGI came out at 47.3 µM in the experiment with OVCAR-3 ovarian, 75.1 µM in the experiment on OVCAR-4 ovarian and 63.6 µM in the experiment with SF-268 CNS.
As for `CCOC(=O)/C(C#N)=C(/NNc1ccccc1)c1ccncc1C(=O)O`, the TGI with BT-549 breast, in the experiment with HOP-62 NSCLC, in the experiment on MALME-3M melanoma, with NCI-H23 lung, in the experiment on NCI-H460 lung and with NCI/ADR-RES ovarian was over 100 µM in each case. Further, the TGI in the experiment on OVCAR-3 ovarian, with OVCAR-4 ovarian and in the experiment on SF-268 CNS was over 100 µM each time.
For `Cc1ccc(SC[C@@]2(C(F)F)NC(=O)NC2=O)cc1`, the TGI with BT-549 breast, with HOP-62 NSCLC, with MALME-3M melanoma, with NCI-H23 lung, with NCI-H460 lung and in the experiment with NCI/ADR-RES ovarian was over 100 µM each time. Further, the TGI with OVCAR-3 ovarian, in the experiment on OVCAR-4 ovarian and in the experiment on SF-268 CNS was over 100 µM throughout.
For the compound `COc1cc([C@H]2Oc3c(OC)cc(CCCO)cc3[C@@H]2CO)ccc1O`, the TGI in the experiment with BT-549 breast, in the experiment with HOP-62 NSCLC, in the experiment with MALME-3M melanoma, in the experiment on NCI-H23 lung, in the experiment with NCI-H460 lung and in the experiment on NCI/ADR-RES ovarian was over 100 µM each time. Moreover, the TGI with OVCAR-3 ovarian, with OVCAR-4 ovarian and with SF-268 CNS was over 100 µM each time.
Turning to `O=C(O)c1cc(Cl)cc2c1NC1(N2)C(=O)Nc2ccccc21` (centres undefined), the TGI in the experiment on BT-549 breast, with HOP-62 NSCLC, in the experiment on MALME-3M melanoma, in the experiment on NCI-H23 lung, with NCI-H460 lung and in the experiment with NCI/ADR-RES ovarian was over 100 µM in each case. In addition, the TGI in the experiment on OVCAR-3 ovarian, with OVCAR-4 ovarian and in the experiment on SF-268 CNS was over 100 µM throughout.
With `CSc1nc(C#N)c(N)n1C`, the TGI with BT-549 breast, in the experiment with HOP-62 NSCLC, in the experiment with MALME-3M melanoma, in the experiment with NCI-H23 lung, in the experiment on NCI-H460 lung and in the experiment with NCI/ADR-RES ovarian was over 100 µM throughout. The TGI with OVCAR-3 ovarian, in the experiment on OVCAR-4 ovarian and in the experiment on SF-268 CNS was over 100 µM in each case.
With `O=S1(=O)C(c2ccccc2)=C(O)c2ccccc21`, the TGI with BT-549 breast, in the experiment on HOP-62 NSCLC, with MALME-3M melanoma, in the experiment with NCI-H23 lung, with NCI-H460 lung and with NCI/ADR-RES ovarian was over 100 µM throughout. Also, the TGI in the experiment on OVCAR-3 ovarian, in the experiment on OVCAR-4 ovarian and in the experiment with SF-268 CNS was over 100 µM each time.
For the compound `O=C1CCC2(O)C3Cc4ccc(Oc5nnnn5-c5ccccc5)c5c4C2(CCN3CC2CC2)C1O5` (centres undefined), the TGI was over 100 µM with BT-549 breast; over 100 µM in the experiment on HOP-62 NSCLC; 32.7 µM in the experiment on MALME-3M melanoma; over 100 µM with NCI-H23 lung; over 100 µM in the experiment with NCI-H460 lung; over 100 µM in the experiment on NCI/ADR-RES ovarian. Further, the TGI with OVCAR-3 ovarian, with OVCAR-4 ovarian and with SF-268 CNS was over 100 µM in each case.
`C/C=C/[C@H]1O[C@@](O)([C@@H](C)[C@H](O)[C@H](C)[C@H]2OC(=O)/C(OC)=C/C(C)=C/[C@@H](C)[C@@H](O)[C@@H](CC)[C@@H](O)[C@H](C)C/C(C)=C/C=C/[C@@H]2OC)C[C@H](OC2CC(O)C(OC(N)=O)C(C)O2)[C@@H]1C` (some centres undefined): the TGI was determined as 19.7 µM in the experiment on BT-549 breast; 1.11 µM in the experiment on HOP-62 NSCLC; 0.73 µM in the experiment on MALME-3M melanoma; 26.7 µM with NCI-H23 lung; 14.4 µM in the experiment on NCI-H460 lung; 26.8 µM in the experiment on NCI/ADR-RES ovarian. For the same compound, the TGI in the experiment on OVCAR-3 ovarian amounted to 17.2 µM; in the experiment with OVCAR-4 ovarian, 20.8 µM; with SF-268 CNS it was 25 µM.
For `O=c1[nH]c2cc3cccnc3c(Cl)c2nc1CBr`, the TGI worked out at 89.8 µM in the experiment with BT-549 breast; 29.4 µM in the experiment on HOP-62 NSCLC; 65.5 µM with MALME-3M melanoma; 32.2 µM in the experiment on NCI-H23 lung; 39.7 µM with NCI-H460 lung; 53.3 µM with NCI/ADR-RES ovarian. Besides, the TGI in the experiment on OVCAR-3 ovarian is 35.5 µM; in the experiment with OVCAR-4 ovarian, 34.2 µM; in the experiment with SF-268 CNS it was 64.7 µM.
In the case of `COC(=O)/C(=C\c1ccco1)P(=O)(OC)OC`, the TGI with BT-549 breast was over 100 µM; in the experiment with HOP-62 NSCLC it was 52.7 µM; with MALME-3M melanoma, 59 µM; in the experiment on NCI-H23 lung, over 100 µM; in the experiment on NCI-H460 lung, over 100 µM; with NCI/ADR-RES ovarian it was over 100 µM. The TGI was 81.6 µM in the experiment with OVCAR-3 ovarian, 33.7 µM in the experiment on OVCAR-4 ovarian and over 100 µM in the experiment with SF-268 CNS.
For `CC(NNC(=O)c1ccncc1)c1ccc(Cl)c(Cl)c1` (centres undefined), the TGI with BT-549 breast, in the experiment with HOP-62 NSCLC, in the experiment with MALME-3M melanoma, with NCI-H23 lung, in the experiment with NCI-H460 lung and in the experiment on NCI/ADR-RES ovarian was over 100 µM each time. The TGI in the experiment on OVCAR-3 ovarian, in the experiment with OVCAR-4 ovarian and with SF-268 CNS was over 100 µM each time.
For `CCOC(=O)C(NC(=O)CC)(Nc1ccc(S(=O)(=O)Nc2nc(C)cc(C)n2)cc1)C(F)(F)F` (centres undefined), the TGI in the experiment with BT-549 breast, in the experiment on HOP-62 NSCLC, in the experiment on MALME-3M melanoma, with NCI-H23 lung, in the experiment with NCI-H460 lung and with NCI/ADR-RES ovarian was over 100 µM throughout. The TGI in the experiment on OVCAR-3 ovarian, in the experiment on OVCAR-4 ovarian and in the experiment with SF-268 CNS was over 100 µM in each case.
Regarding `Oc1nc(N/N=C/c2ccccc2)[nH]c1/C=C1\C=Nc2ccccc21`, the TGI in the experiment with BT-549 breast, in the experiment with HOP-62 NSCLC, in the experiment on MALME-3M melanoma, in the experiment with NCI-H23 lung, in the experiment with NCI-H460 lung and with NCI/ADR-RES ovarian was over 100 µM each time. For the same compound, the concentration for total growth inhibition (TGI) in the experiment on OVCAR-3 ovarian, with OVCAR-4 ovarian and in the experiment with SF-268 CNS was over 100 µM in each case.
On to `Cc1ccc(N=C2SC(c3ccc(C)cc3)(c3ccc(C)cc3)c3ccccc32)cc1`, for which the TGI in the experiment with BT-549 breast, in the experiment with HOP-62 NSCLC, in the experiment with MALME-3M melanoma, in the experiment on NCI-H23 lung, in the experiment with NCI-H460 lung and in the experiment on NCI/ADR-RES ovarian was over 100 µM in each case. Besides, the TGI in the experiment with OVCAR-3 ovarian, in the experiment on OVCAR-4 ovarian and in the experiment on SF-268 CNS was over 100 µM throughout.

The TGI is the concentration giving total growth inhibition. A high value points to lower sensitivity of the cells.
